What was measured:
[1] = Maximum solubility in fat phase excipients determined by HPLC; format: physicochemical
Excerpt: In order to obtain an oil in water emulsion containing a compound with the general formula (I) in the fat phase, pre-formulation studies have been conducted to provide evidence of the excipients allowing good solubilisation as well as good stability of the active ingredient.
(1) List of fat phase excipients in which the maximum solubility has been determined by HPLC:
The limit, below which the compounds of general formula (1) are considered non-solubilized, is 0.1% by weight.

[2] = "Single time" cutaneous penetration study ex vivo (Franz cells, 16 h); format: in vitro ADME; conditions: ex vivo human skin, the 2 formulae evaluated
Protocol: Two types of cutaneous penetration studies were carried out ex vivo on human skin. In these studies compound A corresponds to 3″-tert-butyl-4′-(2-hydroxy-ethoxy)-4″-pyrrolidin-1-yl-[1,1′;3′,1″]-terphenyl-4-carboxylic acid.
“Single Time” Cutaneous Penetration Study:
In this study the Formula is applied for 16 hours to the surface of the skin. After the application COMPOUND A is quantified in the different compartments of the skin: stratum corneum, epidermis, dermis and receiving liquid according to the validated bioanalysis method.
The bioanalysis was conducted by mass spectrometry in tandem by positive electrospray ionisation using a Xevo device (Waters). The limit of quantification for compound A is 1 ng/mL.
The conditions of LC/MS/MS developed enabled up to 0.1% of the doe applied in each of the compartments to be detected (unabsorbed dose, stratum, epidermis, dermis and receiving liquid).
In this type of “single point” study the parameters considered are: • a. The distribution profile in the different compartments (qualitative data) • b. The penetration in the epidermis+dermis compartment (numerical data) FIG. 1

[3] = Stability of compound A in mixtures of excipients (solvent/surfactants) determined by HPLC; format: physicochemical
Excerpt: (3) Stability of compound A in mixtures of excipients (solvent/surfactants) determined by HPLC:
Studies of stability of compound A solubilised in oils (in which it is stable) in the presence of surfactants have been conducted:
(§1) The limits fixed for high stability are 95%-105% as a percentage relative to TO.

[4] = Stability of compound A in its principal solvents; format: physicochemical
Excerpt: (2) Stability of compound A in its principal solvents:
as §1

CC(C)(C)c1cc(-c2cc(-c3ccc(C(=O)O)cc3)ccc2OCCO)ccc1N1CCCC1 [Compound A, 3″-tert-butyl-4′-(2-hydroxy-ethoxy)-4″-pyrrolidin-1-yl-[1,1′;3′,1″]-terphenyl-4-carboxylic acid]
Maximum solubility ([1]; in Arlasolve DMI (Dimethyl Isosorbide)): 0.400%
Maximum solubility ([1]; in Benzyl alcohol (Benzyl Alcohol)): 2.388%
Maximum solubility ([1]; in Brij 30 (Laureth-4)): 2.03%
Maximum solubility ([1]; in Capryol 90 (Propylene glycol monocaprylate)): 0.802%
Maximum solubility ([1]; in Crodamol IPM (Isopropyl myristate)): <0.1%
Maximum solubility ([1]; in Hydrolite 5P (Pentylene glycol)): 0.482%
Maximum solubility ([1]; in Phenoxetol (Phenoxyethanol)): 1.957%
Compound A in the receiving liquid [2]: not detected
Stability results ([3]; COMPOUND A 0.05% in Arlacel 165/Arlamol E, 40° C.): Stable/Ok 3 Months
Stability results ([3]; COMPOUND A 0.05% in Arlacel 165/Lauroglycol FCC): Unstable
Stability results ([3]; COMPOUND A 0.05% in Brij 721/Arlamol E, 40° C.): Stable/Ok 3 Months
Stability results ([3]; COMPOUND A 0.05% in Brij 721/Lauroglycol FCC, 40° C.): Stable/Ok 3 Months
Stability results ([3]; COMPOUND A 0.05% in Cremophor EL/Labrafil M1944CS): Unstable
Stability results ([3]; COMPOUND A 0.05% in Cremophor EL/Lauroglycol FCC): Unstable
Stability results ([3]; COMPOUND A 0.05% in Eumulgin B2/Arlamol E, 40° C.): Stable/Ok 3 Months
Stability results ([3]; COMPOUND A 0.05% in GlucateSS-Glucamate SSE-20/Arlamol E): Unstable
Stability results ([3]; COMPOUND A 0.05% in GlucateSS-Glucamate SSE-20/Lauroglycol FCC, 40° C.): Stable/Ok 3 Months
Stability results ([3]; COMPOUND A 0.05% in Simulsol M45/Crodamol DA): Unstable
Stability results ([3]; COMPOUND A 0.05% in Tween 80/Arlamol E): Unstable
Stability results ([3]; COMPOUND A 0.2% in Cremophor EL/Labrafil M1944CS): Unstable
Stability results ([3]; COMPOUND A 0.2% in Cremophor RH40/Crodamol DA): Unstable
Stability results ([3]; COMPOUND A 0.2% in Simulsol M45/Crodamol DA): Unstable
Stability results ([3]; COMPOUND A 0.2% in Tween 80/Hexylene glycol): Unstable
Stability results ([3]; COMPOUND A 0.2% in Tween 80/Lauroglycol FCC): Unstable
Stability results ([4]; COMPOUND A 0.005% in Miglyol 812N (Caprylic/capric triglycerides), 40° C.): Stable/Ok 6 Months
Stability results ([4]; COMPOUND A 0.005% in Sweet almond oil, 40° C.): Stable/Ok 6 Months
Stability results ([4]; COMPOUND A 0.05% in Arlacel 83V Pharma (Sorbitan Sesquioleate), 40° C.): Stable/Ok 6 Months
Stability results ([4]; COMPOUND A 0.05% in Arlamol E (PPG-15 stearyl ether), 40° C.): Stable/Ok 6 Months
Stability results ([4]; COMPOUND A 0.05% in Arlasolve DMI (Dimethyl Isosorbide)): Unstable
Stability results ([4]; COMPOUND A 0.05% in Benzyl Alcohol): Unstable
Stability results ([4]; COMPOUND A 0.05% in Brij 30 (Laureth-4)): Unstable
Stability results ([4]; COMPOUND A 0.05% in Capryol 90 (Propylene glycol monocaprylate), 40° C.): Stable/Ok 6 Months
Stability results ([4]; COMPOUND A 0.05% in Crodamol DA (Diisopropyl Adipate), 40° C.): Stable/Ok 6 Months
Stability results ([4]; COMPOUND A 0.05% in Dipropylene Glycol Care (Dipropylene glycol)): Unstable
Stability results ([4]; COMPOUND A 0.05% in Eutanol G (Octyldodecanol)): Unstable
Stability results ([4]; COMPOUND A 0.05% in Labrafil M1944CS (Apricot Kernel Oil PEG-6 Ester), 40° C.): Stable/Ok 6 Months
Stability results ([4]; COMPOUND A 0.05% in Lauroglycol FCC (Propylene glycol laurate), 40° C.): Stable/Ok 6 Months
Stability results ([4]; COMPOUND A 0.05% in Marcol 152 (Parrafinum liquidum)): Unstable
Stability results ([4]; COMPOUND A 0.05% in Myritol PC (Propylene glycol dicaprylate/dicaprate)): Unstable
Stability results ([4]; COMPOUND A 0.05% in Phenoxetol (Phenoxyethanol), 40° C.): Stable/Ok 6 Months

From patent US9084778B2, “Topical compositions containing a retinoid of the oil-in-water emulsion type” (GALDERMA RESEARCH & DEVELOPMENT, priority 2012, dated 2015)
